The values below come from patent US10023565B2, “N,N′ substituted piperidinamine compounds, and preparation method and usage thereof” (Institute of Pharmacology and Toxicology Academy of …, priority 2013, dated 2018).

The target of one experiment is T1, Hsp70 (Homo sapiens, UniProt P0DMV8).
T1 construct: purchased Enzo Life Sciences ADI-ESP-550-D
Nature of the experiment: Measurement of affinity between compounds and Hsp70 (SPR, BIACORE T100). It counts as binding. Particulars: for Kd: steady state model, 25° C., read-out: KD (binding constant between the compounds and Hsp70). As for the experimental part: Instrument for measuring the affinity between Example compounds and Hsp70 is BIACORE T100 Biomolecular Interaction Analysis (GE, USA), and the positive control drug is VER-155008 that is well-recognized as Hsp70 inhibitor now, and, on the basis of the measured results, according to binding characteristics between the compounds and protein, the binding constant (equilibrium dissociation constant KD) between drugs and protein is calculated by selecting steady state model with the formula: Conc*Rmax/[conc+KD]+offset.
1. Instrument: BIACORE T100 Biomolecular Interaction Analysis (GE, USA)
2. Reagents: PBS Buffer (×10), P20, CM5 chip (GE, USA), Hsp70 (human, ADI-ESP-550-D), manufactured by Enzo Life Sciences.
30 mM mother liquor of the compound was formulated with DMSO, which was diluted to 2 mM application solution with DMSO before use. 5 μl of the application solution was taken and diluted with 95 μl 1.05×PBS to 100 μM, and then diluted in turn with PBS containing 5% DMSO to […]. PBS containing 5% DMSO was used as solvent control.
Hsp70 protein was diluted with 10 mmol/L sodium acetate buffer solution (pH 5.0) to 30 μg/ml, and coupled directly on a hydrophilic carboxylmethyl dextran matrix sensor chip M5 through normalized primary amine coupling reaction, RU=11209, and then the chip was balanced for 1-2 h with PBS Buffer at […].
At a flow rate of […], with PBS containing 5% DMSO as mobile phase, at 25° C., the compound was introduced in the sequence of 0.003, 0.01, 0.03, 0.1, 0.3, 1, 3 and 10 μM, with binding time of 90 seconds, and dissociation time of 120 seconds.
According to binding characteristics between the compounds and protein, the binding constant (equilibrium dissociation constant KD) between drugs and protein was calculated by selecting steady state model with the formula: Conc*Rmax/[conc+KD]+offset.
On the technique in general: SPR reads the build-up and loss of mass on a sensor chip optically.

The subject of the next experiment is BT474. Put plainly: Antitumor bioactivity evaluation, breast cancer cells (ATPlite). It is filed as cell-based. The note with it: Homo sapiens, BT-474; test sample 5 μM, 72 hours; read-out: Inhibitory Rate % BT474. The procedure, abridged: (§1)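 Cells seeded at 5000/well and allowed to adhere 24 h at 37 °C, then treated with compound at 5 μM final, alone or combined with lapatinib at 1 μM final, for 72 h at 37 °C. ATPlite luminescence was read; survival (%) = treated RLU/vehicle-control RLU ×100.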
On the technique in general: Cellular ATP, detected with luciferase, serves as a proxy for viable cell number.

A further experiment relates to MDA-MB-361. The experiment is described as above. It counts as cell-based. Particulars: Homo sapiens, test sample 5 μM, 72 hours, read-out: Inhibitory Rate % MDA-MB-361. The procedure, abridged:
as §1

The next experiment has as its system MDA-MB-453. The description is as above. It is filed as cell-based. The note with it: Homo sapiens, test sample 5 μM, 72 hours, read-out: Inhibitory Rate % MDA-MB-453. The procedure, abridged: as §1
The next experiment concerns SK-BR3. The description is as above. It counts as cell-based. Particulars: Homo sapiens, SK-BR-3; test sample 5 μM, 72 hours; read-out: Inhibitory Rate % SK-BR3. The procedure, abridged:
as §1

The next experiment deals with SK/Lap^R1.0. The experiment is described as above. It is filed as cell-based. Particulars: Homo sapiens; test sample 5 μM, 72 hours; read-out: Inhibitory Rate % SKLap^R1.0. The procedure, abridged: as §1
The next experiment relates to BT/Lap^R1.0. Described as above. It counts as cell-based, human. The note with it: Homo sapiens; test sample 5 μM, 72 hours; read-out: Inhibitory Rate % BT/Lap^R1.0. The procedure, abridged: as §1

T1 sequence (P0DMV8 whole entry): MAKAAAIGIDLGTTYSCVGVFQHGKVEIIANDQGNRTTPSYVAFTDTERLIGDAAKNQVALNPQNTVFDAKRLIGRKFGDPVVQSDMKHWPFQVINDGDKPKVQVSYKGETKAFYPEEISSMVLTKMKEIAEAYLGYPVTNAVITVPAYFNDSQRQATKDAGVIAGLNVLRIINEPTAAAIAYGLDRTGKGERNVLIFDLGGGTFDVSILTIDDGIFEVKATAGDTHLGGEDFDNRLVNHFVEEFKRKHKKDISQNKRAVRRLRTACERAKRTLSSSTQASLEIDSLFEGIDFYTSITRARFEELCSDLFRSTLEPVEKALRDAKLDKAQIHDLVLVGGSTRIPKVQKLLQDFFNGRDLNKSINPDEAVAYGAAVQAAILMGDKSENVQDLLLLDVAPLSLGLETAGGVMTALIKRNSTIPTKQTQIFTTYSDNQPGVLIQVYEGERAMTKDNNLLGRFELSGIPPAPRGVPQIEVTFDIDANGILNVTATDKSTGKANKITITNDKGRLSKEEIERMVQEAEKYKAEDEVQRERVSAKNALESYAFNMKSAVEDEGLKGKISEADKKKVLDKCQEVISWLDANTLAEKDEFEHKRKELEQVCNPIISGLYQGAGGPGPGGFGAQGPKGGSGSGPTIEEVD

For the compound `Fc1ccc(CNC2CCN(Cc3cnc(Cl)s3)CC2)cc1` [Example 12, N-(4-fluorobenzyl)-N-{1-[(2-chlorothiazol-5-yl)methyl]piperidin-4-yl}amine], on Hsp70, the “KD compared with positive control drug VER-155008” value is given as “KD values equivalent to that of the positive control drug VER-155008”. For the same compound, on Hsp70, the Kd is 200 nM. The inhibition at 5 µM is 5.4% in the experiment with BT474; 4.8% in the experiment with MDA-MB-361; 0.1% with MDA-MB-453; 22.4% with SK-BR3; 4.4% in the experiment on SK/Lap^R1.0; 9.1% in the experiment on BT/Lap^R1.0.
Regarding `CN(Cc1ccccc1C#N)C1CCN(Cc2cnc(Cl)s2)CC1` [Example 14, N-methyl-N-(2-cyanobenzyl)-N-{1-[(2-chlorothiazol-5-yl)methyl]piperidin-4-yl}amine], at Hsp70, the “KD compared with positive control drug VER-155008” value is listed as “KD values equivalent to that of the positive control drug VER-155008”. Besides, the Kd at Hsp70 came to 245 nM. Also, the inhibition at 5 µM was -4.1% in the experiment with BT474; -8.5% with MDA-MB-361; 8.2% in the experiment with MDA-MB-453; 7.3% with SK-BR3; 4.2% in the experiment on SK/Lap^R1.0; 4% in the experiment on BT/Lap^R1.0.
As for `CSc1nccc(N2CCC(N(C)Cc3ccc(F)cc3)CC2)n1` [Example 35, N-methyl-N-(4-fluorobenzyl)-N-[1-(2-methylthiopyrimidin-4-yl)piperidin-4-yl]amine], the “KD compared with positive control drug VER-155008” value at Hsp70 was “KD values equivalent to that of the positive control drug VER-155008”. Moreover, the Kd at Hsp70 is 204 nM. The inhibition at 5 µM with BT474 was found to be 40.5%; in the experiment with MDA-MB-361, 46%; in the experiment with MDA-MB-453, 82.3%; in the experiment with SK-BR3, 31.5%; with SK/Lap^R1.0, 30.9%; in the experiment with BT/Lap^R1.0 it was 44.7%.
For the compound `COc1nccc(N2CCC(N(C)Cc3ccc(F)cc3)CC2)n1` [Example 57, N-methyl-N-(4-fluorobenzyl)-N-[1-(2-methoxypyrimidin-4-yl)piperidin-4-yl]amine], the “KD compared with positive control drug VER-155008” value at Hsp70 is recorded as “KD values equivalent to that of the positive control drug VER-155008”. Also, on Hsp70, the Kd amounted to 281 nM. Besides, the inhibition at 5 µM worked out at 12.5% with BT474; 12.8% in the experiment with MDA-MB-361; 40.4% in the experiment on MDA-MB-453; 14.4% in the experiment with SK-BR3; 9% in the experiment on SK/Lap^R1.0; 14.6% in the experiment on BT/Lap^R1.0.
With `COc1cc(N2CCC(N(C)Cc3ccc(Cl)c(Cl)c3)CC2)ncn1` [Example 61, N-methyl-N-(3,4-dichlorobenzyl)-N-[1-(6-methoxypyrimidin-4-yl)piperidin-4-yl]amine], the inhibition at 5 µM is 9.8% with BT474; 6.5% in the experiment with MDA-MB-361; 12.7% in the experiment with MDA-MB-453; 16.1% with SK-BR3; 28% in the experiment with SK/Lap^R1.0; 9.2% in the experiment on BT/Lap^R1.0.
For the compound `COc1cc(N2CCC(N(C)Cc3ccc(F)cc3)CC2)ncn1` [Example 62, N-methyl-N-(4-fluorobenzyl)-N-[1-(6-methoxypyrimidin-4-yl)piperidin-4-yl]amine], the inhibition at 5 µM in the experiment with BT474 amounted to 7.8%; in the experiment on MDA-MB-361 it was 4.9%; in the experiment with MDA-MB-453, 5%; in the experiment on SK-BR3, 7.6%; in the experiment on SK/Lap^R1.0 it was 5.7%; in the experiment with BT/Lap^R1.0, 8.1%.
For the compound `COc1cc(N2CCC(N(C)Cc3cccc(Cl)c3)CC2)ncn1` [Example 63, N-methyl-N-(3-chlorobenzyl)-N-[1-(6-methoxypyrimidin-4-yl)piperidin-4-yl]amine], the inhibition at 5 µM is 11.9% with BT474; 25.6% with MDA-MB-361; 23.8% with MDA-MB-453; 12.6% in the experiment with SK-BR3; 24.8% in the experiment with SK/Lap^R1.0; 9.4% in the experiment with BT/Lap^R1.0.
In the case of `COc1cc(N2CCC(N(C)Cc3c(F)cccc3Cl)CC2)ncn1` [Example 64, N-methyl-N-(2-fluoro-6-chlorobenzyl)-N-[1-(6-methoxypyrimidin-4-yl)piperidin-4-yl] amine], the inhibition at 5 µM in the experiment with BT474 was 45.9%; in the experiment with MDA-MB-361, 39.6%; with MDA-MB-453, 59.4%; in the experiment with SK-BR3 it was 15.5%; in the experiment with SK/Lap^R1.0 it was 16.6%; with BT/Lap^R1.0, 48.5%.
Regarding `COc1cc(N2CCC(N(C)Cc3ccccc3C#N)CC2)ncn1` [Example 65, N-methyl-N-(2-cyanobenzyl)-N-[1-(6-methoxypyrimidin-4-yl)piperidin-4-yl]amine], the inhibition at 5 µM in the experiment on BT474 is 65.8%; in the experiment on MDA-MB-361 it was 42.7%; in the experiment on MDA-MB-453, 66.1%; with SK-BR3, 23.3%; in the experiment on SK/Lap^R1.0, 16.8%; in the experiment on BT/Lap^R1.0, 62.2%.
On to `COc1cc(N2CCC(N(C)Cc3ccc(C#N)cc3)CC2)ncn1` [Example 66, N-methyl-N-(p-cyanobenzyl)-N-[1-(6-methoxypyrimidin-4-yl)piperidin-4-yl]amine], for which the inhibition at 5 µM in the experiment on BT474 was 25.1%; with MDA-MB-361, 20.3%; in the experiment on MDA-MB-453, 46.1%; with SK-BR3, 17.3%; in the experiment on SK/Lap^R1.0, 8.8%; with BT/Lap^R1.0, 16.9%.
As to `COc1cc(N2CCC(N(C)Cc3cc(Cl)ccc3Cl)CC2)ncn1` [Example 67, N-methyl-N-(2,5-dichlorobenzyl)-N-[1-(6-methoxypyrimidin-4-yl)piperidin-4-yl]amine], the inhibition at 5 µM is 45.9% with BT474; 27.6% in the experiment with MDA-MB-361; 61.1% with MDA-MB-453; 29.2% with SK-BR3; 9.4% with SK/Lap^R1.0; 32.1% in the experiment on BT/Lap^R1.0.
As to `COc1cc(N2CCC(N(C)Cc3cccc(F)c3)CC2)ncn1` [Example 68, N-methyl-N-(3-fluorobenzyl)-N-[1-(6-methoxypyrimidin-4-yl)piperidin-4-yl]amine], the inhibition at 5 µM in the experiment with BT474 amounted to 5.4%; with MDA-MB-361 it was 8.4%; in the experiment with MDA-MB-453 it was 9.4%; with SK-BR3 it was 5.2%; in the experiment on SK/Lap^R1.0, 30.1%; in the experiment with BT/Lap^R1.0 it was 5.6%.
For `CS(=O)(=O)CCNCc1ccc(-c2ccc3ncnc(Nc4ccc(OCc5cccc(F)c5)c(Cl)c4)c3c2)o1` [lapatinib, reference compound], the inhibition at 5 µM was determined as 75.6% in the experiment with BT474; 40.2% with MDA-MB-361; 42.6% with MDA-MB-453; 79% in the experiment on SK-BR3; 10.4% in the experiment on SK/Lap^R1.0; 18% in the experiment on BT/Lap^R1.0.

As a reminder, the Kd is the concentration at which binding is half-saturated.
